Measured values: patent publication US7566712B2, “Biaryl piperazinyl-pyridine analogues” (Neurogen Corporation, priority 2003, dated 2009)

These compounds were tested against T1, human capsaicin receptor (Homo sapiens, UniProt Q8NER1) (assay: Calcium mobilization assay, determination of antagonist activity (Example 6)). Settings: Table II; IC50 determined as described in Example 6.
T1 construct: pBK-CMV expression construct encoding the full length human capsaicin receptor; expressed in transfected cells
Format: cell-based
Summary of the method: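 HEK293 clonal lines stably expressing full-length human capsaicin receptor, loaded with Fluo-3 AM in KRH buffer pH 7.4, 1–2 h at 37 °C. Compounds (1–5 μM final) preincubated 0.5–6 h at room temperature, then capsaicin at its EC50 added. FLIPR/Fluoroskan calcium signal; IC50 as 50% decrease of capsaicin response.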

T1 sequence (Q8NER1 whole entry): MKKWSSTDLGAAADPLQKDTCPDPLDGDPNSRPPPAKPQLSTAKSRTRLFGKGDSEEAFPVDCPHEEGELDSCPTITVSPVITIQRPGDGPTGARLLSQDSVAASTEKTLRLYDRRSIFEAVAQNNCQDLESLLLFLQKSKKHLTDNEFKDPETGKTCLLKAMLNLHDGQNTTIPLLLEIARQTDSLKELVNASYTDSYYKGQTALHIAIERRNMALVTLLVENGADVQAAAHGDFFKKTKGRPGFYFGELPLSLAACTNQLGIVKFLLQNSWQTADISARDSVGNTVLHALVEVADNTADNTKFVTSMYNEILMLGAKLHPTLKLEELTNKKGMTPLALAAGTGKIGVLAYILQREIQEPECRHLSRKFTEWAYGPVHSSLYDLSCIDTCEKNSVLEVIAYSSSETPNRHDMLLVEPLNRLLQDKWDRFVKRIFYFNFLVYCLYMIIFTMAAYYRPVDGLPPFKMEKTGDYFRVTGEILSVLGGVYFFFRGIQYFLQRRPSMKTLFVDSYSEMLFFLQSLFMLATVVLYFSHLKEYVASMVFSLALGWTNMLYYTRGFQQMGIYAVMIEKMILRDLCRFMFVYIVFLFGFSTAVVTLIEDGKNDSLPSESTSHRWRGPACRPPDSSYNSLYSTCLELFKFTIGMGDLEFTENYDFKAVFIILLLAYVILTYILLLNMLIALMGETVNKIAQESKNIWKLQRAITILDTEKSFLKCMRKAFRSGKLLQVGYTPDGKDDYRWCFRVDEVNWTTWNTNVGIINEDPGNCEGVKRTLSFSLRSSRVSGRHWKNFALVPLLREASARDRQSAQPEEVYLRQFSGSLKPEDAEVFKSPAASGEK

Row | SMILES | IC50
1 | C[C@@H]1CN(c2ncccc2Cl)CCN1c1cc(-c2ccc(C(C)(C)C)cc2)nc(N2CCOCC2)n1 [Example 520, 4-{4-(4-tert-butylphenyl)-6-[(2R)-4-(3-chloropyridin-2-yl)-2-methylpiperazin-1-yl]pyrimidin-2-yl}morpholine] | ≤ 1000 nM
2 | CCc1cccc(-c2cc(N3CCN(c4ncccc4Cl)C[C@H]3C)nc(N3CCOCC3)n2)c1 [Example 517, 4-[4-[(2R)-4-(3-chloropyridin-2-yl)-2-methylpiperazin-1-yl]-6-(3-ethylphenyl)pyrimidin-2-yl]morpholine] | ≤ 1000 nM
3 | C=CCN1CCN(c2nc(-c3ccccc3)nc(N3CCN(c4ncccc4C(F)(F)F)CC3)n2)CC1 [Example 440, 2-(4-allylpiperazin-1-yl)-4-phenyl-6-{4-[3-(trifluoromethyl)pyridin-2-yl]piperazin-1-yl}-1,3,5-triazine] | ≤ 1000 nM
4 | CC(C)Oc1cccc(-c2cc(N3CCN(c4ncccc4Cl)C[C@H]3C)nc(N3CCOCC3)n2)c1 [Example 544, 4-[4-[(2R)-4-(3 chloropyridin-2-yl)-2-methylpiperazin-1-yl]-6-(3-isopropoxyphenyl)pyrimidin-2-yl]morpholine] | ≤ 1000 nM
5 | Fc1ccc(-c2cc(N3CCN(c4ncccc4C(F)(F)F)CC3)nc(OC3CCNCC3)n2)cc1Cl [Example 561, 4-(3-chloro-4-fluorophenyl)-2-(piperidin-4-yloxy)-6-{4-[3-(trifluoromethyl)pyridin-2-yl]piperazin-1-yl}pyrimidine] | ≤ 1000 nM
6 | CN1CCCC(Oc2nc(-c3ccc(F)c(Cl)c3)cc(N3CCN(c4ncccc4C(F)(F)F)CC3)n2)C1 (centres unmarked) [Example 559, 4-(3-chloro-4-fluorophenyl)-2-[(1-methylpiperidin-3-yl)oxy]-6-{4-[3-(trifluoromethyl)pyridin-2-yl]piperazin-1-yl}pyrimidine] | ≤ 1000 nM

Same assay, conditions: Table II; IC50 determined as described in Example 6 (antagonist activity, calcium mobilization)

Row | SMILES | IC50
7 | Cc1cccnc1N1CCN(c2cc(-c3ccc(F)c(Cl)c3)nc(N(C)[C@@H](C)CO)n2)CC1 [Example 1016, (2S)-2-[{4-(3-chloro-4-fluorophenyl)-6-[4-(3-methylpyridin-2-yl)piperazin-1-yl]pyrimidin-2-yl}(methyl)amino]propan-1-ol] | ≤ 1000 nM
8 | C[C@@H]1CN(c2ncccc2F)CCN1c1cc(-c2ccc(F)c(Cl)c2)nc(N2CCOC[C@@H]2C)n1 [Example 1004, (3S)-4-{4-(3-chloro-4-fluorophenyl)-6-[(2R)-4-(3-fluoropyridin-2-yl)-2-methylpiperaztn-1-yl]pyrimidin-2-yl}-3-methylmorpholine] | ≤ 1000 nM
9 | Cc1ccc(-c2cc(N3CCN(c4nccnc4Cl)C[C@H]3C)nc(N3CCC[C@H]3C)n2)cc1F [Example 981, 4-[(2R)-4-(3-chloropyrazin-2-yl)-2-methylpiperazin-1-yl]-6-(3-fluoro-4-methylphenyl)-2-[(2R)-2-methylpyrrolidin-1-yl]pyrimidine] | ≤ 1000 nM

Same assay, conditions: Table II; determined as described in Example 6 (antagonist activity); "*" = 1 micromolar or less

Row | SMILES | IC50
10 | CC1CCCN1c1nc(-c2ccc(F)c(F)c2)cc(N2CCN(c3nccnc3Cl)C[C@@H]2C)n1 (stereo partly drawn) [Example 938, 4-[(2S)-4-(3-chloropyrazin-2-yl)-2-methylpiperazin-1-yl]-6-(3,4-difluorophenyl)-2-(2-methylpyrrolidin-1-yl)pyrimidine] | ≤ 1000 nM
11 | C[C@@H]1CCCN1c1cc(-c2ccc(F)c(Cl)c2)nc(N2CCN(c3ncccc3Cl)C[C@@H]2C)n1 [Example 948, 4-(3-chloro-4-fluorophenyl)-2-[(2S)-4-(3-chloropyridin-2-yl)-2-methylpiperazin-1-yl]-6-[(2R)-2-methylpyrrolidin-1-yl]pyrimidine] | ≤ 1000 nM
12 | C[C@@H]1CN(c2ncccc2Cl)CCN1c1cc(-c2ccc(F)c(F)c2)nc(N2CCC[C@H]2C)n1 [Example 925, 4-[(2R)-4-(3-chloropyridin-2-yl)-2-methylpiperazin-1-yl]-6-(3,4-difluorophenyl)-2-[(2R)-2-methylpyrrolidin-1-yl]pyrimidine] | ≤ 1000 nM
13 | COc1ccc(-c2cc(N3CCN(c4ncccc4Cl)C[C@H]3C)nc(N3CCCC3C)n2)cc1C (stereo partly drawn) [Example 810, 4-[(2R)-4-(3-chloropyridin-2-yl)-2-methylpiperazin-1-yl]-6-(4-methoxy-3-methylphenyl)-2-(2-methylpyrrolidin-1-yl)pyrimidine] | ≤ 1000 nM
14 | Cc1cccnc1N1CCN(c2cc(-c3ccc(F)c(Cl)c3)nc(N3CCOCC3)n2)[C@H](C)C1 [Example 852, 4-{4-(3-chloro-4-fluorophenyl)-6-[(2R)-2-methyl-4-(3-methylpyridin-2-yl)piperazin-1-yl]pyrimidin-2-yl}morpholine] | ≤ 1000 nM
15 | C[C@@H]1CN(c2ncccc2Cl)CCN1c1cc(-c2ccc(F)c(Cl)c2)nc(N2CCC[C@H]2C)n1 [Example 940, 4-(3-chloro-4-fluorophenyl)-6-[(2R)-4-(3-chloropyridin-2-yl)-2-methylpiperazin-1-yl]-2-[(2R)-2-methylpyrrolidin-1-yl]pyrimidine] | ≤ 1000 nM
16 | C[C@@H]1CCCN1c1cc(-c2ccc(Cl)c(F)c2)nc(N2CCN(c3ncccc3Cl)C[C@@H]2C)n1 [Example 960, 4-(4-chloro-3-fluorophenyl)-2-[(2S)-4-(3-chloropyridin-2-yl)-2-methylpiperazin-1-yl]-6-[(2R)-2-methylpyrrolidin-1-yl]pyrimidine] | ≤ 1000 nM
17 | O=C(O)C1CCN(c2nc(-c3ccc(F)c(Cl)c3)cc(N3CCN(c4ncccc4C(F)(F)F)CC3)n2)CC1 [Example 799, 1-(4-(3-chloro-4-fluorophenyl)-6-{4-[3-(trifluoromethyl)pyridin-2-yl]piperazin-1-yl}pyrimidin-2-yl)piperidine-4-carboxylic acid] | ≤ 1000 nM

Same assay, conditions: Table II; determined as described in Example 6; class symbol

Row | SMILES | IC50
18 | Cc1cccc(-c2nc(N3CCOCC3)nc(N3CCN(c4ccccn4)CC3)n2)c1C [Example 271, 2-(2,3-dimethylphenyl)-4-morpholin-4-yl-6-(4-pyridin-2-ylpiperazin-1-yl)-1,3,5-triazine] | ≤ 1000 nM
19 | CCc1ccccc1-c1nc(N2CCOCC2)nc(N2CCN(c3ccccn3)CC2)n1 [Example 274, 2-(2-ethylphenyl)-4-morpholin-4-yl-6-(4-pyridin-2-ylpiperazin-1-yl)-1,3,5-triazine] | ≤ 1000 nM

Same assay, conditions: determined as described in Example 6 (calcium mobilization, antagonist activity); Table II

Row | SMILES | IC50
20 | CCN(C)c1nc(-c2ccc(F)c(C)c2)cc(N2CCN(c3ncccc3C(F)(F)F)CC2)n1 [Example 738, N-ethyl-4-(4-fluoro-3-methylphenyl)-N-methyl-6-{4-[3-(trifluoromethyl)pyridin-2-yl]piperazin-1-yl)pyrimidin-2-amine] | ≤ 1000 nM
21 | CC1CNCCN1c1nc(-c2ccc(F)c(Cl)c2)cc(N2CCN(c3ncccc3C(F)(F)F)CC2)n1 (centres unmarked) [Example 629, 4-(3-chloro-4-fluorophenyl)-2-(2-methylpiperazin-1-yl)-6-{4-[3-(trifluoromethyl)pyridin-2-yl]piperazin-1-yl}pyrimidine] | ≤ 1000 nM
22 | Cc1cccnc1N1CCN(c2cc(-c3ccc(F)c(Cl)c3)nc(N3CCOCC3)n2)CC1 [Example 585, 4-{4-(3-chloro-4-fluorophenyl)-6-[4-(3-methylpyridin-2-yl)piperazin-1-yl]pyrimidin-2-yl}morpholine] | ≤ 1000 nM
23 | CCN1CCN(c2nc(-c3ccc(F)c(Cl)c3)cc(N3CCN(c4ncccc4C(F)(F)F)CC3)n2)CC1 [Example 623, 4-(3-chloro-4-fluorophenyl)-2-(4-ethylpiperazin-1-yl)-6-{4-[3-(trifluoromethyl)pyridin-2-yl]piperazin-1-yl}pyrimidine] | ≤ 1000 nM
